The values that follow come from publication PMC11100219, “Dual-function antimicrobial-antibiofilm peptide hybrid to tackle biofilm-forming Staphylococcus epidermidis” (Annals of Clinical Microbiology and Antimicrobials, 2024).

Each structure is given as a SMILES string. ≈ marks a conversion by molar mass, not a printed value. Residues, ends and D or L forms follow the SMILES beside them. A value given as a limit tells only on which side of the number the result lay.

The subject of data set [1] is human red blood cells (hRBCs). Description: Hemolysis activity (hemoglobin release). It is filed as cell-based. Particulars: 1 h, 37°C. The method, then: The effect of peptides on human red blood cells (hRBCs) was assessed by observing the release of hemoglobin upon treated with peptide. Briefly, the hRBCs were obtained from healthy volunteers and subsequently diluted in 10 mM PBS to a concentration of 2% hRBCs. An equal volume of 2% hRBCs and peptide at concentration of 0.98–250 µg/mL in 10 mM PBS mixtures were incubated for 1 h at 37°C. Following incubation, the suspension was centrifuged, then supernatants were collected and transferred to 96-well microplates for measurement of absorbance at OD of 405 nm (OD405). This study was performed in accordance with the Thammasat University Ethics Committee (COA No. 066/2562). Written informed consent was obtained from all volunteers.

The subject of data set [2] is S. epidermidis biofilm cells. Description: Biofilm cell viability, MTT assay. It is filed as cell-based, Staphylococcus epidermidis. The settings on record: 24 h. The protocol:
The biofilm cell viability after treated with hybrid peptide BiF2_5K7K was examined by 3-(4,5-Dimethylthiazol-2-yl)-2,5-Diphenyltetrazolium bromide or MTT colorimetric assays. Bacterial suspensions (10^6 CFU/mL in TSB) and peptide at concentration ranging from 0.98 to 250 µg/mL in 10 mM PBS were incubated in 96-well microtiter plates at 37°C for 24 h. After incubation, supernatant was discarded, followed by the addition of 0.4 mg/mL MTT (Sigma-Aldrich, USA) in 10 mM PBS to each well and incubated for 3 h at 37°C. Subsequently, supernatant was removed and dimethyl sulfoxide (DMSO; Fisher BioReagents™, UK) was added to dissolve the formed formazan crystals in wells. At a wavelength of 570 nm, the optical densities of the solutions were then determined by microplate reader.

The test system of data set [3] is all gram-negative bacterial strains. Put plainly: Mean MIC and therapeutic index, gram-negative strains. The format is cell-based. The settings on record: four gram-negative strains. The method, then: (§1) The minimal inhibitory concentrations (MICs) of peptide derivatives versus planktonic bacteria were assessed using a modification of the broth microdilution assay previously described in the National Committee for Clinical Laboratory Standards (NCCLS). In brief, bacteria at mid-logarithmic growth were collected by centrifugation at 2,500 × g for 5 min. Subsequently, the pellet was resuspended and adjusted in Mueller-Hinton Broth (MHB; BD Bacto™, USA) to an OD620 of 0.05. Fifty µL of bacterial suspensions was transferred to 96-well microplates. Later, 50 µL of peptide derivatives at 0.98–250 µg/mL in 10 mM PBS, was added to wells and incubated for 24 h at 37°C with continuous shaking at 220 rpm. […] The experiments were done in three technical replicates and repeated independently.
The therapeutic index (TI) is widely used for evaluating a peptide’s efficacy and safety. It is the ratio between the minimum hemolytic concentration (MHC, the concentration causing 10% hemolysis) and the geometric mean (GM) value of the MIC [15]. […] While, both lysine-substituted peptides (BiF2_7K and BiF2_5K7K) had higher TIs against all tested biofilm-forming bacteria than did the two parent peptides, and the TI of BiF2_5K7K was higher than that of BiF2_7K.

The next data set relates to S. epidermidis. Description: Serum stability by MIC in human serum. The format is cell-based, Staphylococcus epidermidis. Particulars: 10^6 CFU/mL, 24 h, 37°C. The protocol: The stability of BiF2_5K7K in the presence of human serum was assessed by evaluating the MIC values, as previously described. Human serum was subjected to heat inactivation at 56°C for 30 min. Bacterial suspensions were then adjusted to a concentration of 10^6 CFU/mL in MHB supplemented with 25% and 50% human serum. These suspensions were mixed with two-fold serially diluted concentrations of BiF2_5K7K (ranging from 0.98 to 250 µg/mL) and incubated at 37°C for 24 h. MICs were subsequently determined as described above. The study protocol was ethically approved by the Thammasat University Ethics Committee (COA No. 066/2562). All volunteers provided written informed consent.

In data set [4] the test system is Staphylococcus aureus ATCC 25923. Put plainly: Broth microdilution MIC / MBC. It is filed as cell-based. Particulars: 24 h, 37°C. The method, then: as §1
(§2) To determine minimal bactericidal concentrations (MBCs) of the peptides, 50 µL of supernatant from non-turbid wells was plated on TSA, and the number of colony-forming units (CFUs) was observed after 24 h of incubation at 37°C. MBC was defined as the minimum concentration of peptide at which no bacterial colony was observed on the plate.

The test system of data set [5] is Bacillus cereus ATCC 11778. Description: Broth microdilution MIC / MBC. It is filed as cell-based. The settings on record: 24 h, 37°C. The method, then: as §1, §2
Data set [6] relates to Salmonella Typhimurium ATCC 13311. Put plainly: Broth microdilution MIC / MBC. The format is cell-based. The settings on record: 24 h, 37°C. The method, then: as §1, §2
The subject of data set [7] is Escherichia coli ATCC 25922. Put plainly: Broth microdilution MIC / MBC. It is filed as cell-based. The settings on record: 24 h, 37°C. The method, then: as §1, §2
In data set [8] the test system is Listeria monocytogenes 10403s. Put plainly: Broth microdilution MIC / MBC. The format is cell-based. The settings on record: 24 h, 37°C. The protocol: as §1, §2
For data set [9], the system named is Staphylococcus epidermidis ATCC 35984. Description: Broth microdilution MIC / MBC. The settings on record: plating of non-turbid wells on TSA, 24 h, 37°C. It is filed as cell-based. The protocol: as §1, §2
The test system of data set [10] is Acinetobacter baumanii MT strain. Put plainly: Broth microdilution MIC / MBC. The format is cell-based. Particulars: 24 h, 37°C. The protocol: as §1, §2
In data set [11] the test system is Pseudomonas aeruginosa ATCC 27853. Put plainly: Broth microdilution MIC / MBC. Particulars: 24 h, 37°C. The format is cell-based. The method, then: as §1, §2
The mark [12] stands for this setting: broth microdilution, MHB, 0.98-250 µg/mL, visible inspection.
[13] abbreviates: plating of non-turbid wells on TSA.

`CC[C@H](C)[C@H](NC(=O)[C@H](CCCCN)NC(=O)[C@H](CCCCN)NC(=O)[C@@H](NC(=O)[C@H](CC(C)C)NC(=O)[C@@H](N)Cc1ccccc1)C(C)C)C(=O)N[C@@H](CCCCN)C(=O)N[C@@H](CCCCN)C(=O)N[C@H](C(=O)N[C@@H](CC(C)C)C(=O)N[C@@H](CCCNC(=N)N)C(=O)N[C@@H](CCCNC(=N)N)C(N)=O)[C@@H](C)CC` [BiF2_5K7K] (H-FLVKKIKKILRR-NH2; N-terminus assumed): in [1] (at 250 µg/mL (maximum concentration tested)), the hemolytic activity result is “less than 10%”. Further, in [1] (peptide concentration causing 10% hemolysis of hRBCs, 2% hRBCs in 10 mM PBS, OD405), the “MHC, minimum hemolytic concentration” value is listed as over 250 µg/mL. The “viability of biofilm cells” value in data set [2] (at MIC (15.63 µg/mL)) was “remained viable”; in [2] (at higher concentrations (>15.63 µg/mL)), “no growth of biofilm cells”. The “GM-, geometric mean of MIC values from all gram-negative bacterial strains” value in data set [3] amounted to 93.75 µg/mL. Moreover, the “MIC in the presence of human serum” value in the data set on S. epidermidis (MHB with 25% heat-inactivated human serum) and in the data set on S. epidermidis (MHB with 50% heat-inactivated human serum) was 15.63 µg/mL in each case. For the same compound, the MIC in data set [4] (setting [12]) was over 250 µg/mL; in data set [5] (setting [12]), 250 µg/mL (≈ 162 µM); in data set [6] (setting [12]), 31.25 µg/mL (≈ 20.3 µM); in data set [7] (setting [12]), 250 µg/mL (≈ 162 µM); in data set [8] (setting [12]), 31.25 µg/mL (≈ 20.3 µM); in [10] (setting [12]) it was 31.2 µg/mL (≈ 20.3 µM). This compound also returned an MIC in data set [11] (setting [12]) of 62.5 µg/mL (≈ 40.6 µM). Moreover, the MBC in data set [4] (setting [13]) is over 250 µg/mL; in [5] (setting [13]), 250 µg/mL (≈ 162 µM); in data set [6] (setting [13]), 62.5 µg/mL (≈ 40.6 µM); in data set [7] (setting [13]) it was 250 µg/mL (≈ 162 µM); in [8] (setting [13]) it was 62.5 µg/mL (≈ 40.6 µM); in [9], 31.25 µg/mL (≈ 20.3 µM). The minimal bactericidal concentration (MBC) in data set [10] (setting [13]) came out at 31.2 µg/mL (≈ 20.3 µM); in [11] (setting [13]), 125 µg/mL (≈ 81.1 µM).
